These are literature values, as cited in article PMC8538004, “Identification of a Novel Neuropeptide S Receptor Antagonist Scaffold Based on the SHA-68 Core” (Pharmaceuticals, 2021).

In data set [1] the test system is NPS-stimulated locomotor activity. Further details: method as in PMID 18337476, PMID 20172007. Particulars: dosed at 50 mg/kg, 0.1 nmol of NPS; cited from earlier work.
Data set [2] deals with NPSR. Further details: method as in PMID 24964000, PMID 20615693, PMID 18337476, PMID 24171469, PMID 20510609. Particulars: Figure 1, known NPSR antagonists; cited from earlier work.

Turning to `O=C(NCc1ccc(F)cc1)N1CCN2C(=O)OC(c3ccccc3)(c3ccccc3)C2C1` (stereo not drawn) [SHA-68, 3-Oxo-1,1-diphenyl-tetrahydro-oxazolo[3,4-a]pyrazine-7-carboxylic Acid 4-Fluoro-benzylamide], in data set [1], the “Block of NPS-stimulated locomotor activity” value is “significantly block”. Besides, in data set [2], the Ke is given as 14 nM. In general, IC50 refers to the concentration that gives 50% inhibition. As for `COc1ccc2c(c1)C(CC1CCOCC1)(c1ccc(Cl)cc1)n1ccnc1-2` (stereo not drawn) [B], the IC50 in data set [2] was 82 nM.
